Laboratory results published in US20190365790A1, “Compounds, Compositions and Methods for Prevention or Treatment of Liver and Lipid-related Conditions” (SIVANARAY INC., priority 2017, published 2019).

Test system: HFD-fed, streptozotocin (STZ) injected rats with type 2 diabetes (T2DM)
Assay: Study 3 (BVISIV): plasma biochemical parameters in HFD + STZ type 2 diabetes rats
Assay type: in vivo
Details: for relative effectiveness in lowering serum triglyceride, LDL and ALT levels: 200 mg/kg/day oral, comparison among BVISIV formulations

| Compound | lowering of glucose serum levels (200 mg/kg/day, end of 6 weeks, vs Group 2) | relative effectiveness in lowering serum triglyceride, LDL and ALT levels |
| --- | --- | --- |
| O=C[C@H](O)[C@@H](O)[C@@H](O)[C@H](O)C(=O)O [BVISIV 4, Galacturonic Acid] | most effective |  |
| O=C[C@H](O)[C@@H](O)[C@@H](O)[C@H](O)CO [BVISIV 5, Galactose] |  | effective |
| O=C[C@@H](O)[C@H](O)[C@H](O)CO [BVISIV 6, Arabinose] |  | did not perform as well as the other formulations |
